Assays:
[1] = molecular target: Methionine aminopeptidase 2 (Homo sapiens, UniProt P50579); experiment: biochemical
Description: Inhibition of human recombinant GST-6XHis-tagged full-length cytosolic METAP2 expressed in cabbage looper BTI-TN-5B1-4 cells using Met-Pro-p-nitroanilide as substrate after 20 mins by spectrophotometric analysis in presence of Bacillus coagulans GST-tagged proline iminopeptidase

[2] = molecular target: Methionine aminopeptidase 1 (Homo sapiens, UniProt P53582)
Description: Inhibition of human recombinant full-length cytosolic METAP1 expressed in Escherichia coli BL21(DE3) using Met-Pro-p-nitroanilide as substrate after 20 mins by spectrophotometric analysis in presence of Bacillus coagulans GST-tagged proline iminopeptidase

[3] = molecular target: T1, Proline iminopeptidase (Bacillus coagulans) (UniProt P46541); experiment: Inhibition of Bacillus coagulans GST-tagged proline iminopeptidase using Pro-p-nitroanilide as substrate at 100 uM relative to control; settings: Heyndrickxia coagulans
T1 sequence (whole entry): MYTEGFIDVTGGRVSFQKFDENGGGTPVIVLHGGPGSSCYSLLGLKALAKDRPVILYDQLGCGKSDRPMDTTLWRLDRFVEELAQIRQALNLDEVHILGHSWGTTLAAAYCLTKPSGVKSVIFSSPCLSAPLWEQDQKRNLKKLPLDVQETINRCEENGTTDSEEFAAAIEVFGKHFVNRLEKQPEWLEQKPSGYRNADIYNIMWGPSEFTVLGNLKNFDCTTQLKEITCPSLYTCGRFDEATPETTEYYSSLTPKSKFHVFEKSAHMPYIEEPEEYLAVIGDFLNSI

[4] = molecular target: T1, Proline iminopeptidase (Bacillus coagulans); experiment: Inhibition of Bacillus coagulans GST-tagged proline iminopeptidase using Pro-p-nitroanilide as substrate at 10 uM relative to control; settings: Heyndrickxia coagulans
Homo sapiens = organism: Homo sapiens; experiment: Selectivity ratio of EC50 for human recombinant GST-6XHis-tagged full-length cytosolic METAP2 to EC50 for human recombinant full-length cytosolic METAP1

Sequence of Methionine aminopeptidase 2 (P50579 whole entry): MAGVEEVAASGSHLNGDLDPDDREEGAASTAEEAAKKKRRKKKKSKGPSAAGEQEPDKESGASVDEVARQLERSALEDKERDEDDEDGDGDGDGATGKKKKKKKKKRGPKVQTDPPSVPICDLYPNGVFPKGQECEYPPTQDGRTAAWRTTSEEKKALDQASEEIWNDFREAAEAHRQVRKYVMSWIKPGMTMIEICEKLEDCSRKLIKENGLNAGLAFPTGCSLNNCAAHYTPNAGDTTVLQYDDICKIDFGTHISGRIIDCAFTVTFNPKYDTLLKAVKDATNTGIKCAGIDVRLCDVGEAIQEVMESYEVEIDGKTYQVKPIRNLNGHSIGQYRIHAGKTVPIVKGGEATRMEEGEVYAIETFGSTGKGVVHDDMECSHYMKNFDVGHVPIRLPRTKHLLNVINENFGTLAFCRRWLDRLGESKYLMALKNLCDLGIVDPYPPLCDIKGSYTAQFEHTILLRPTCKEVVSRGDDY

Row | SMILES | IC50 [1] | IC50 [2] | inhibition [3] | inhibition [4] | Ratio EC50 (Homo sapiens)
1 | Cc1nc(-c2ccc(Cl)cn2)nc(NC[C@H](NCCCCc2ccc(C#N)cc2)c2ccccc2)c1Cl | 16000 nM | 520 nM | 97% | 27% | 31
2 | COc1ccc(-c2nc(C)c(Cl)c(NC[C@H](NC(=O)CCCN3CCNCC3)c3ccccc3)n2)nc1 | > 300000 nM | 270 nM | – | – | > 1110
3 | Cc1nc(-c2ccc(N3CCCC3)cn2)nc(NC[C@H](NC(=O)CCCN2CCNCC2)c2ccccc2)c1Cl | 1100 nM | 1700 nM | – | – | 1.1
4 | Cc1nc(-c2ccc(Cl)cn2)nc(NC[C@H](NC(=O)CCCCc2ccccc2)c2ccccc2)c1Cl | > 30000 nM | 1300 nM | – | – | > 23
5 | Cc1nc(-c2ccc(Cl)cn2)nc(NC[C@H](NCCCCc2ccc(O)cc2)c2ccccc2)c1Cl | > 300000 nM | 420 nM | – | – | > 714
6 | Cc1nc(-c2ccc(Cl)cn2)nc(NCC(CCCc2ccccc2)c2ccccc2)c1Cl (configuration not stated) | > 200000 nM | 160 nM | – | – | > 1250
7 | Cc1nc(-c2ccc(Cl)cn2)nc(NC[C@H](NC(=O)CCCN2CCNCC2)c2ccccc2)c1Cl | 1200 nM | 36 nM | – | – | 33
8 | Cc1nc(-c2ccc(Cl)cn2)nc(NC[C@H](NCc2ccccc2)c2ccccc2)c1Cl | 31000 nM | 220 nM | – | – | 141
9 | Cc1nc(-c2ccc([N+](=O)[O-])cn2)nc(NC[C@H](NC(=O)CCCN2CCNCC2)c2ccccc2)c1Cl | 14000 nM | 300 nM | – | – | 47
10 | Cc1nc(-c2ccc(Cl)cn2)nc(NC[C@H](NCCCCc2ccc(Cl)cc2)c2ccccc2)c1Cl | > 300000 nM | 570 nM | – | – | > 526
11 | Cc1nc(-c2ccc(Cl)cn2)nc(NC[C@H](NCCCc2ccccc2)c2ccccc2)c1Cl | > 300000 nM | 260 nM | – | – | > 1150
12 | Cc1nc(-c2ccc(Cl)cn2)nc(NCC(CCc2ccccc2)c2ccccc2)c1Cl (configuration not stated) | > 200000 nM | 63 nM | – | – | > 3180
13 | Cc1nc(-c2ccccn2)nc(NCCc2ccccc2)c1C | > 100000 nM | > 100000 nM | – | – | –
14 | Cc1nc(-c2ccc(Cl)cn2)nc(NC[C@H](NCCc2ccccc2)c2ccccc2)c1Cl | > 100000 nM | 260 nM | – | – | > 384
15 | Cc1nc(-c2ccc(Cl)cn2)nc(NC[C@H](NCCCCCCc2ccccc2)c2ccccc2)c1Cl | > 30000 nM | 710 nM | – | – | > 42
16 | Cc1nc(-c2ccc(Cl)cn2)nc(NCC(CCCCc2ccccc2)c2ccccc2)c1Cl (configuration not stated) | > 200000 nM | 200 nM | – | – | > 1000
17 | Cc1nc(-c2ccccn2)nc(NC[C@H](NCCCN2CCNCC2)c2ccccc2)c1Cl | 108000 nM | – | – | – | –
18 | Cc1nc(-c2ccccn2)nc(NC[C@H](NC(=O)CCCN2CCN(CCO)CC2)c2ccccc2)c1Cl | > 300000 nM | – | – | – | –
19 | Cc1nc(-c2ccccn2)nc(NC[C@H](NCCCN2CCN(CCO)CC2)c2ccccc2)c1Cl | 101000 nM | – | – | – | –
20 | Cc1nc(-c2ccc(Cl)cn2)nc(NC[C@H](NCCCCc2cccs2)c2ccccc2)c1Cl | > 300000 nM | 380 nM | – | – | > 789
21 | Cc1nc(-c2ccccn2)nc(N2CCN(CCO)CC2)c1Cl | > 100000 nM | – | – | – | –
22 | Cc1nc(-c2ccc(F)cn2)nc(NC[C@H](NC(=O)CCCN2CCNCC2)c2ccccc2)c1Cl | 1200 nM | 49 nM | – | – | 24
23 | Cc1nc(-c2cccc(Cl)n2)nc(NC[C@H](NC(=O)CCCN2CCNCC2)c2ccccc2)c1Cl | > 30000 nM | 7200 nM | – | – | > 4.2
24 | Cc1nc(-c2ccc(Cl)cn2)nc(NC[C@H](NC(=O)CCCCCc2ccccc2)c2ccccc2)c1Cl | > 30000 nM | 670 nM | – | – | > 45
25 | Cc1nc(-c2ccccn2)nc(NC[C@H](NC(=O)CCN2CCN(CCO)CC2)c2ccccc2)c1Cl | 114000 nM | – | – | – | –
26 | CCCOc1ccc(CCCCN[C@@H](CNc2nc(-c3ccc(Cl)cn3)nc(C)c2Cl)c2ccccc2)cc1 | > 300000 nM | 1200 nM | – | – | > 250

Row | SMILES | IC50 [1] | IC50 [2] | inhibition [3] | inhibition [4] | Ratio EC50 (Homo sapiens)
27 | Cc1nc(-c2ccccn2)nc(NC[C@H](NCCCCN2CCNCC2)c2ccccc2)c1Cl | 188000 nM | – | – | – | –
28 | Cc1nc(-c2ccccn2)nc(NC2CCN(c3ncc(C(F)(F)F)cc3Cl)CC2)c1Cl | > 100000 nM | – | – | – | –
29 | Cc1nc(-c2ccccn2)nc(SCCc2ccccc2)c1Cl | > 100000 nM | – | – | – | –
30 | Cc1nc(-c2ccc(Cl)cn2)nc(NC[C@H](NC(=O)Cc2ccccc2)c2ccccc2)c1Cl | 28000 nM | 700 nM | – | – | 40
31 | Cc1cc(NCCc2ccccc2)nc(-c2ccccn2)n1 | > 100000 nM | > 100000 nM | – | – | –
32 | Cc1nc(-c2ccc(Cl)cn2)nc(NC[C@H](NCCCCc2ccc3ccccc3n2)c2ccccc2)c1Cl | > 300000 nM | 690 nM | – | – | > 435
33 | Cc1nc(-c2ccccn2)nc(NCCNc2cccc(C(F)(F)F)n2)c1Cl | > 100000 nM | – | – | – | –
34 | Cc1nc(-c2ccc(Cl)cn2)nc(NC[C@H](NCCCCc2ccccc2)c2ccccc2)c1Cl | > 100000 nM | – | – | – | –
35 | COc1ccnc(-c2nc(C)c(Cl)c(NC[C@H](NC(=O)CCCN3CCNCC3)c3ccccc3)n2)c1 | 14000 nM | 530 nM | – | – | 26
36 | Cc1nc(-c2ccccn2)nc(NC[C@H](NCCCCN2CCN(CCO)CC2)c2ccccc2)c1Cl | 197000 nM | – | – | – | –
37 | Cc1nc(-c2ccc(Br)cn2)nc(NC[C@H](NC(=O)CCCN2CCNCC2)c2ccccc2)c1Cl | 53000 nM | 330 nM | – | – | 161
38 | Cc1nc(-c2ccccn2)nc(SCc2ccccc2)c1Cl | > 100000 nM | – | – | – | –
39 | Cc1nc(-c2ccc(Cl)cn2)nc(NC[C@H](NCCCCc2ccco2)c2ccccc2)c1Cl | > 300000 nM | 330 nM | – | – | > 909
40 | Cc1nc(-c2ccc(Cl)cn2)nc(NC[C@H](NC(=O)CCCc2ccccc2)c2ccccc2)c1Cl | > 30000 nM | 160 nM | – | – | > 188
41 | COc1cccnc1-c1nc(C)c(Cl)c(NC[C@H](NC(=O)CCCN2CCNCC2)c2ccccc2)n1 | > 300000 nM | 2500 nM | – | – | > 120
42 | Cc1nc(-c2ncccc2Cl)nc(NC[C@H](NC(=O)CCCN2CCNCC2)c2ccccc2)c1Cl | > 300000 nM | 7600 nM | – | – | > 39
43 | Cc1nc(-c2ccccn2)nc(NC[C@H](NC(=O)CCCN2CCNCC2)c2ccccc2)c1Cl | > 300000 nM | – | – | – | –
44 | Cc1nc(-c2cc(Cl)ccn2)nc(NC[C@H](NC(=O)CCCN2CCNCC2)c2ccccc2)c1Cl | > 300000 nM | 730 nM | – | – | > 411
45 | Cc1nc(-c2ccccn2)nc(NCCNc2ccc(C(F)(F)F)cn2)c1Cl | > 100000 nM | – | – | – | –
46 | Cc1nc(-c2ccc(N(C)C)cn2)nc(NC[C@H](NC(=O)CCCN2CCNCC2)c2ccccc2)c1Cl | 1700 nM | 140 nM | – | – | 12
47 | COc1cccc(-c2nc(C)c(Cl)c(NC[C@H](NC(=O)CCCN3CCNCC3)c3ccccc3)n2)n1 | > 30000 nM | 20000 nM | – | – | > 1.5
48 | Cc1nc(-c2cccnc2)nc(NCc2ccccc2)c1Cl | > 100000 nM | > 100000 nM | – | – | –
49 | Cc1nc(-c2ccc(Cl)cn2)nc(NC[C@H](NCCCCCc2ccccc2)c2ccccc2)c1Cl | > 100000 nM | 780 nM | – | – | > 138
50 | Cc1nc(-c2ccc(Cl)cn2)nc(NC[C@H](NC(=O)CCc2ccccc2)c2ccccc2)c1Cl | > 30000 nM | 93 nM | – | – | > 323
51 | Cc1nc(-c2ccc(Cl)cn2)nc(NC[C@H](NCCCCn2cccc2)c2ccccc2)c1Cl | > 100000 nM | 500 nM | – | – | > 200
52 | Cc1nc(-c2ccc(Cl)cn2)nc(NCC(CCCCCc2ccccc2)c2ccccc2)c1Cl (racemic) | > 200000 nM | 2300 nM | – | – | > 87
